Patent US9795570B2, “Modulation of macrophage phenotype by emodin” (University of South Carolina, priority 2016, dated 2017)

Tests used:
[1] = test system: mouse peritoneal macrophages; experiment: Whole genome microarray, macrophages stimulated with LPS/IFNγ; type: cell-based
Protocol: (§1) Three milliliters of 4% Thioglycolate solution was injected intraperitoneally into 8-12 week old C57BL/6 mice. Three days later, macrophages were collected by lavaging the peritoneal cavity with PBS. The cells were then resuspended in DMEM containing 10% FBS. After 2 h, non-adherent cells were washed away with PBS and the macrophages were cultured overnight in serum free DMEM. The macrophages were then treated with DMEM containing IL4 (10 ng/ml, BioAbChem Inc. Ladson, S.C.) or LPS (100 ng/ml, Sigma-Aldrich) and IFNγ (20 ng/ml, BioAbChem Inc) with or without emodin. Emodin was purchased from Nanjing Langze Medicine and Technology Co. Ltd (Nanjing, China) and dissolved in DMSO at a concentration of 10 mg/ml as a stock solution.
(§2) Microarray analysis was carried out as described previously, with a few alterations. Macrophages were stimulated with IL4 for 6 h or LPS+IFNγ for 24 h with or without emodin (50 μM). Samples were prepared in biological replicates of 4. Cells were lysed with Qiazol and RNA was extracted using Qiagen's miRNeasy kit. Agilent's 2100 Bioanalyzer was used to determine the quality and quantity of the RNA. […] The RNA was amplified and labeled with Agilent's Low Input Quick Amp Labeling Kit (Agilent) according to the manufacturer's instructions. Labeled RNA was then purified using Qiagen's RNeasy Mini Kit (Qiagen, Valencia, Calif.) and dye incorporation and cRNA yield were assessed. Labeled samples were hybridized to Agilent Whole Mouse Genome Microarrays 8×60K (Agilent) using Agilent's Gene Expression Hybridization Kit (Agilent) according to the manufacturer's instructions. Microarray analysis was performed using an Agilent DNA Microarray Scanner System (Cat. # G2565CA).
(§3) For microarray analysis, data was extracted from images with Feature Extractor Software version 10.7.3.1 (Agilent); background correction using detrending algorithms was performed. Subsequently, background-corrected data was uploaded into GeneSpring GX version 11.5.1 for analysis. In this process, data was log 2 transformed, quantile normalized and baseline transformed using the median of all samples. […] Differentially expressed genes were determined by analysis of the data using the Mann-Whitney unpaired statistics. A cutoff p-value of 0.05 and a fold change cutoff value of 2.0 were used to filter the data. Pathway analysis was performed using Ingenuity Pathway Analysis software.

[2] = test system: mouse peritoneal macrophages; experiment: Whole genome microarray, macrophages stimulated with IL4; type: cell-based
Protocol: as §1, §2, §3

[3] = test system: T cells co-cultured with TCM treated macrophages; experiment: Macrophage - T cell co-culture (activation and proliferation); type: cell-based, mouse
Protocol: Peritoneal macrophages were seeded into 10 cm plates and treated with EO771 conditioned medium with or without emodin for 24 h. The cells were then washed with PBS and resuspended. T cells were isolated from the spleens of C57BL/6 mice using EasySep T cell isolation kit (Stem Cell Technologies) according to the manufacturer's instructions. For the proliferation assay, T cells were labeled with CSFE and then mixed with macrophages and CD3/CD28 DYNA beads in a 1:1:1 ratio and added to 12 well plates in triplicate. For the activation assay, the T cells were collected after 24 h and stained with anti-CD3, anti-CD4, and anti-CD69 for 30 min at 4° C. The cells were then analyzed on a BD FACS flow cytometer. For the proliferation assay, T cells were collected after 72 h and stained with anti-CD3 and anti-CD4. The cells were analyzed for CSFE depletion on a Beckman Coulter FC500.

## Cc1cc(O)c2c(c1)C(=O)c1cc(O)cc(O)c1C2=O [emodin]
[1]; CD86, microarray, emodin 50 μM
  fold reduction of LPS/IFNγ induced expression: 7.74 fold
[1]; CXCL2, microarray
  fold change of expression under LPS/IFNγ stimulation: −10.31 fold
[1]; CXCL10, microarray
  fold change of expression under LPS/IFNγ stimulation: −2.01 fold
[1]; H2-Oa, microarray, emodin 50 μM
  fold reduction of LPS/IFNγ induced expression: 3.85 fold
[1]; H2-Ob, microarray, emodin 50 μM
  fold reduction of LPS/IFNγ induced expression: 6.42 fold
[1]; IL1β, microarray, emodin 50 μM
  fold reduction of LPS/IFNγ induced expression: 13.64 fold
[1]; IL6, microarray, emodin 50 μM
  fold reduction of LPS/IFNγ induced expression: 3.25 fold
[1]; LPS/IFNγ and IL4 stimulation, microarray
  genes changed by emodin in both groups: 1,575 genes
[1]; LPS/IFNγ or IL4 stimulation, microarray
  genes whose expression was changed by emodin in at least one of the conditions: ~6,500 genes
[1]; LPS/IFNγ vs IL4, microarray
  genes on which emodin had inverse effects under the two different stimuli: 86 genes
[1]; MMP2, microarray, emodin 50 μM
  fold reduction of LPS/IFNγ induced expression: 11.86 fold
[1]; MMP9, microarray, emodin 50 μM
  fold reduction of LPS/IFNγ induced expression: 28.87 fold
[1]; Mrc1, microarray
  fold increase of expression under LPS/IFNγ stimulation: 8.72 fold
[1]; TNFα, microarray
  fold change of expression under LPS/IFNγ stimulation: −2.47 fold
[1]; TNFα, microarray, emodin 50 μM
  fold reduction of LPS/IFNγ induced expression: 2.01 fold
[1]; YM1, microarray
  fold increase of expression under LPS/IFNγ stimulation: 2.04 fold
[1]; emodin 50 μM, LPS/IFNγ 24 h
  LPS/IFNγ responsive genes whose induced changes were attenuated: about 31%
[1]; gene CCL2, microarray, LPS/IFNγ 24 h, emodin 50 μM
  Em + LPS vs. LPS/IFN (gene expression): −12.06
[1]; gene CCL5, microarray, LPS/IFNγ 24 h, emodin 50 μM
  Em + LPS vs. LPS/IFN (gene expression): −5.41
[1]; gene CD86, microarray, LPS/IFNγ 24 h, emodin 50 μM
  Em + LPS vs. LPS/IFN (gene expression): −7.74
[1]; gene CXCL2, microarray, LPS/IFNγ 24 h, emodin 50 μM
  Em + LPS vs. LPS/IFN (gene expression): −2.47
[1]; gene CXCL3, microarray, LPS/IFNγ 24 h, emodin 50 μM
  Em + LPS vs. LPS/IFN (gene expression): −2.47
[1]; gene CXCL10, microarray, LPS/IFNγ 24 h, emodin 50 μM
  Em + LPS vs. LPS/IFN (gene expression): −10.31
[1]; gene FPR2, microarray, LPS/IFNγ 24 h, emodin 50 μM
  Em + LPS vs. LPS/IFN (gene expression): −33.81
[1]; gene H2-Oa, microarray, LPS/IFNγ 24 h, emodin 50 μM
  Em + LPS vs. LPS/IFN (gene expression): −3.85
[1]; gene H2-Ob, microarray, LPS/IFNγ 24 h, emodin 50 μM
  Em + LPS vs. LPS/IFN (gene expression): −6.42
[1]; gene IFIT1, microarray, LPS/IFNγ 24 h, emodin 50 μM
  Em + LPS vs. LPS/IFN (gene expression): −11.94
[1]; gene IL1B, microarray, LPS/IFNγ 24 h, emodin 50 μM
  Em + LPS vs. LPS/IFN (gene expression): −13.64
[1]; gene IL1RL1, microarray, LPS/IFNγ 24 h, emodin 50 μM
  Em + LPS vs. LPS/IFN (gene expression): −10.78
[1]; gene IL6, microarray, LPS/IFNγ 24 h, emodin 50 μM
  Em + LPS vs. LPS/IFN (gene expression): −3.25
[1]; gene IL12A, microarray, LPS/IFNγ 24 h, emodin 50 μM
  Em + LPS vs. LPS/IFN (gene expression): −4.93
[1]; gene IL12B, microarray, LPS/IFNγ 24 h, emodin 50 μM
  Em + LPS vs. LPS/IFN (gene expression): 2.47
[1]; gene IRF5, microarray, LPS/IFNγ 24 h, emodin 50 μM
  Em + LPS vs. LPS/IFN (gene expression): −2.11
[1]; gene IRF7, microarray, LPS/IFNγ 24 h, emodin 50 μM
  Em + LPS vs. LPS/IFN (gene expression): −4.20
[1]; gene MMP2, microarray, LPS/IFNγ 24 h, emodin 50 μM
  Em + LPS vs. LPS/IFN (gene expression): −11.86
[1]; gene MMP9, microarray, LPS/IFNγ 24 h, emodin 50 μM
  Em + LPS vs. LPS/IFN (gene expression): −28.87
[1]; gene MYH3, microarray, LPS/IFNγ 24 h, emodin 50 μM
  Em + LPS vs. LPS/IFN (gene expression): −7.76
[1]; gene Mrc1, microarray, LPS/IFNγ 24 h, emodin 50 μM
  Em + LPS vs. LPS/IFN (gene expression): 8.72
[1]; gene NOS2, microarray, LPS/IFNγ 24 h, emodin 50 μM
  Em + LPS vs. LPS/IFN (gene expression): −3.77
[1]; gene PTGS2, microarray, LPS/IFNγ 24 h, emodin 50 μM
  Em + LPS vs. LPS/IFN (gene expression): −3.99
[1]; gene RASGRP1, microarray, LPS/IFNγ 24 h, emodin 50 μM
  Em + LPS vs. LPS/IFN (gene expression): −8.52
[1]; gene SELL, microarray, LPS/IFNγ 24 h, emodin 50 μM
  Em + LPS vs. LPS/IFN (gene expression): −10.45
[1]; gene SOCS1, microarray, LPS/IFNγ 24 h, emodin 50 μM
  Em + LPS vs. LPS/IFN (gene expression): −5.34
[1]; gene TLR4, microarray, LPS/IFNγ 24 h, emodin 50 μM
  Em + LPS vs. LPS/IFN (gene expression): −4.71
[1]; gene TNF, microarray, LPS/IFNγ 24 h, emodin 50 μM
  Em + LPS vs. LPS/IFN (gene expression): −2.01
[2]; Arg1, microarray, emodin 50 μM
  fold reduction of IL4 induced expression: 7.69 fold
[2]; CXCL2, microarray
  fold increase of expression under IL4 stimulation: 60.6 fold
[2]; CXCL10, microarray
  fold increase of expression under IL4 stimulation: 15.5 fold
[2]; Ch3I3, microarray, emodin 50 μM
  fold reduction of IL4 induced expression: 4.24 fold
[2]; IRF4, microarray, emodin 50 μM
  fold reduction of IL4 induced expression: 97.43 fold
[2]; Mrc1, microarray, emodin 50 μM
  fold reduction of IL4 induced expression: 2.29 fold
[2]; SOCS1, microarray, emodin 50 μM
  fold reduction of IL4 induced expression: 22.9 fold
[2]; TNFα, microarray
  fold increase of expression under IL4 stimulation: 2.7 fold
[2]; emodin 50 μM, IL4 6 h
  IL4 responsive genes whose induced changes were inhibited: ~60%
[2]; gene Arg1, microarray, emodin 50 μM
  Em + LPS vs. LPS/IFN (gene expression): −7.69
[2]; gene CCL7, microarray, emodin 50 μM
  Em + LPS vs. LPS/IFN (gene expression): −4.16
[2]; gene CCL11, microarray, emodin 50 μM
  Em + LPS vs. LPS/IFN (gene expression): −11.31
[2]; gene CCL12, microarray, emodin 50 μM
  Em + LPS vs. LPS/IFN (gene expression): 2.30
[2]; gene CCL28, microarray, emodin 50 μM
  Em + LPS vs. LPS/IFN (gene expression): 2.27
[2]; gene CDH1, microarray, emodin 50 μM
  Em + LPS vs. LPS/IFN (gene expression): −5.72
[2]; gene CDKN1A, microarray, emodin 50 μM
  Em + LPS vs. LPS/IFN (gene expression): 29.78
[2]; gene CISH, microarray, emodin 50 μM
  Em + LPS vs. LPS/IFN (gene expression): −7.11
[2]; gene CXCL2, microarray, emodin 50 μM
  Em + LPS vs. LPS/IFN (gene expression): 60.63
[2]; gene CXCL10, microarray, emodin 50 μM
  Em + LPS vs. LPS/IFN (gene expression): 15.05
[2]; gene CXCR1, microarray, emodin 50 μM
  Em + LPS vs. LPS/IFN (gene expression): 12.40
[2]; gene Ccl2, microarray, emodin 50 μM
  Em + LPS vs. LPS/IFN (gene expression): −4.26
[2]; gene Chi3I3, microarray, emodin 50 μM
  Em + LPS vs. LPS/IFN (gene expression): −4.24
[2]; gene FCGR2B, microarray, emodin 50 μM
  Em + LPS vs. LPS/IFN (gene expression): −2.15
[2]; gene FLT1, microarray, emodin 50 μM
  Em + LPS vs. LPS/IFN (gene expression): −27.09
[2]; gene IL1R1, microarray, emodin 50 μM
  Em + LPS vs. LPS/IFN (gene expression): −2.15
[2]; gene IL6, microarray, emodin 50 μM
  Em + LPS vs. LPS/IFN (gene expression): −5.30
[2]; gene IL19, microarray, emodin 50 μM
  Em + LPS vs. LPS/IFN (gene expression): −20.01
[2]; gene IRF4, microarray, emodin 50 μM
  Em + LPS vs. LPS/IFN (gene expression): −97.43
[2]; gene IRF5, microarray, emodin 50 μM
  Em + LPS vs. LPS/IFN (gene expression): −2.58
[2]; gene ITGB8, microarray, emodin 50 μM
  Em + LPS vs. LPS/IFN (gene expression): −4.32
[2]; gene MMP13, microarray, emodin 50 μM
  Em + LPS vs. LPS/IFN (gene expression): 3.68
[2]; gene Mrc1, microarray, emodin 50 μM
  Em + LPS vs. LPS/IFN (gene expression): −2.29
[2]; gene PLA2G5, microarray, emodin 50 μM
  Em + LPS vs. LPS/IFN (gene expression): 4.26
[2]; gene PTGS2, microarray, emodin 50 μM
  Em + LPS vs. LPS/IFN (gene expression): 2.56
[2]; gene RBP4, microarray, emodin 50 μM
  Em + LPS vs. LPS/IFN (gene expression): −15.56
[2]; gene SOCS1, microarray, emodin 50 μM
  Em + LPS vs. LPS/IFN (gene expression): −22.90
[2]; gene SOCS2, microarray, emodin 50 μM
  Em + LPS vs. LPS/IFN (gene expression): −5.47
[2]; gene TNF, microarray, emodin 50 μM
  Em + LPS vs. LPS/IFN (gene expression): 2.69
[2]; microarray
  expression of CDKN1A (p21): increased the expression
  expression of M2 genes YM1 and Mrc1 in IL4-stimulated cells: reducing them
[3]; TCM and emodin co-treated macrophages, 72 h
  T cell proliferation (CSFE depletion): restored T cell proliferation
[3]; macrophages pre-treated with emodin along with TCM 24 h, co-culture 24 h
  suppression of T cell activation (CD69 on CD4 T cells) by TCM treated macrophages: completely blocked the suppression
